pEC50: −log10 of the molar value.

What all share (type): cell-based
One assay concerns the target T1, CFTR G551D mutant (Homo sapiens, UniProt P13569, G551D).
T1 construct: expressed in transfected cells; host or cells: HEK293 cells, reverse transfection with plasmids
As to the kind of experiment: YFP-halide influx assay for the CFTR-G551D mutation (HEK293 cells). The note with it: forskolin 10.67 μM. The method in brief: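 HEK293 cells reverse-transfected with CFTR G551D and halide-sensitive YFP (H148Q/I152L/F47L), expressed 24 h at 37 °C. YFP fluorescence quenching recorded for 7 s after I⁻ injection. Response = 1−F/F0; EC50 derived from 1−F/F0 vs compound concentration.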

For the next assay, the target named is T2, CFTR ΔF508 mutant (Homo sapiens, UniProt P13569, DEL508-508).
T2 construct: expressed in transfected cells; host or cells: CFBE41o- cells, adenoviral transduction
As to the kind of experiment: YFP-halide influx assay for the CFTR-ΔF508 mutation (CFBE41o- cells). To be noted: forskolin 10.67 μM; for pEC50: from (1−F/F0) vs concentration plot. In outline:
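CFBE41o- cells transduced with adenovirus expressing CFTR ΔF508 and halide-sensitive YFP H148Q/I152L/F47L, then held 24 h at 27° C or with a CFTR modulator 24 h at 37° C. Iodide-induced quench recorded 2 min; EC50 from (1−F/F0) at 36 s versus concentration.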

Another assay deals with T3, CFTR-R117H (Homo sapiens, UniProt P13569, R117H).
T3 construct: expressed in transfected cells
As to the kind of experiment: YFP-halide influx assay for the CFTR-R117H. The method in brief: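 HEK293 cells reverse-transfected with a CFTR mutant and YFP H148Q/I152L/F47L halide sensor, expressed 24 h at 37° C. Fluorescence quenching followed for 7 s after I⁻ injection; activity expressed as 1−F/F0, with EC50 fitted from 1−F/F0 versus compound concentration.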

A further assay deals with G551D CFTR (Homo sapiens, UniProt P13569, G551D). The assay is described as follows: TECC assay, FRT-CFTR G551D protocol. The note with it: FRT cells stably transfected with G551D CFTR, high expression cells, increase in Isc after forskolin. Here is the method:
For G551D recordings, Fischer Rat Thyroid (FRT) cells stably transfected with G551D CFTR (a low CFTR-G551D expressing cell line and a high expressing CFTR-G551D cell line from Rosalind Franklin University of Medicine and Science, North Chicago, Ill.) are plated on Transwell® supports (Costar 6.5 mm diameter, 0.4 μm pore size). The cells are grown for 8-10 days under liquid-liquid interface conditions prior to electrophysiological readings. For electrophysiological recording, the FRT-G551D cells are mounted in the TECC heating plate for electrophysiological measurement and kept at 37° C. The epithelia are bathed in HEPES buffered culturing medium without FBS on both the basolateral and apical sides. Apical amiloride is used to inhibit the endogenous ENaC currents while forkolin is applied on both apical and basolateral side to stimulate CFTR. After forskolin triggering, compounds are added on both sides to test their potential for increasing CFTR gating. Measurements are done during a 10 minute timeframe with recordings every 2 minutes. The increase in Isc is used as a measure for the increased CFTR activity, EC50 values can be generated by measuring impact of different concentrations of compound on Isc on the cells, for this purpose each transwell is treated with a different compound concentration. Inh-172, an inhibitor specific for CFTR, is used to test the specificity of the tested compounds.

T1 sequence (P13569 whole entry G551D): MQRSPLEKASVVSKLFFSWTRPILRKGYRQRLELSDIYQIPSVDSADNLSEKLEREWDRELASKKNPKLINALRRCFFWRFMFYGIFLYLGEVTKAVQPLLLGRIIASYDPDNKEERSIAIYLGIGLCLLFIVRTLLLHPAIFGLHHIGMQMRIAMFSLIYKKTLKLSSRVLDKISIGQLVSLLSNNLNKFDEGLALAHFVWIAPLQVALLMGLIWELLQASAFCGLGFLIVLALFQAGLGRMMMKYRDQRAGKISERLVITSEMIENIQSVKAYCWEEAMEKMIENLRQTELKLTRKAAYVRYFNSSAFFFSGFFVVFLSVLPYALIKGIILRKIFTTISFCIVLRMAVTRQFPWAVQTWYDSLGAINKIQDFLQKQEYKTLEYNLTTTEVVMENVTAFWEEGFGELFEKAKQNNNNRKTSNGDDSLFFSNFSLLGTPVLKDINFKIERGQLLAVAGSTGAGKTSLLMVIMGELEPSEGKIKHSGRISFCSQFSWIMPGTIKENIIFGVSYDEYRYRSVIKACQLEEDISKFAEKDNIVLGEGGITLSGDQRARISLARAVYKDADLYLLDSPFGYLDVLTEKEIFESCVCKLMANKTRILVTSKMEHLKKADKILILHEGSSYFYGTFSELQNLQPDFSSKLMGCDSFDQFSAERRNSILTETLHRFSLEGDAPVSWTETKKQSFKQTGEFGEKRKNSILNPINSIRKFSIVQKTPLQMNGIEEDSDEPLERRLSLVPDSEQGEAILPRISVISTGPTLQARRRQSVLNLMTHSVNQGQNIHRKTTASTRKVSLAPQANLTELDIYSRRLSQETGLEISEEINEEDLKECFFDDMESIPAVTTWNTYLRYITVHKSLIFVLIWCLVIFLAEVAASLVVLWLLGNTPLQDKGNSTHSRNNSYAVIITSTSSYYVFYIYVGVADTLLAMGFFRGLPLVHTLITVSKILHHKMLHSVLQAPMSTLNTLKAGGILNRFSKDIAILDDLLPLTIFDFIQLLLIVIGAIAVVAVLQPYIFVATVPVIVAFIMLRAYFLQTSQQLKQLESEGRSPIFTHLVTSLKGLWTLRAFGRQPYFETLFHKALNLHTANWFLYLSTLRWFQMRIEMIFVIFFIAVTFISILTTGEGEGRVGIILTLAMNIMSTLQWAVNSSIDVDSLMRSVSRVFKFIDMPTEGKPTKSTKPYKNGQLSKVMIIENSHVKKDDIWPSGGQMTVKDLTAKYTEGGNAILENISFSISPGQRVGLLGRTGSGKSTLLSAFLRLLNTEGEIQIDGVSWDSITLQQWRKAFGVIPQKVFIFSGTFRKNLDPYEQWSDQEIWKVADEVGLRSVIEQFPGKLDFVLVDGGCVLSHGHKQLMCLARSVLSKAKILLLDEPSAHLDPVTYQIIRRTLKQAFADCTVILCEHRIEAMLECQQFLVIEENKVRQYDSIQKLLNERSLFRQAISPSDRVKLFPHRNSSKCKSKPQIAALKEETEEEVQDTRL
G551D CFTR, sequence (P13569 whole entry G551D): as above
T3 sequence (P13569 whole entry R117H): as the sequence (P13569 whole entry G551D) above, with R117H, D551G counted along it
T2 sequence (P13569 with tags, fused parts or gaps DEL508-508): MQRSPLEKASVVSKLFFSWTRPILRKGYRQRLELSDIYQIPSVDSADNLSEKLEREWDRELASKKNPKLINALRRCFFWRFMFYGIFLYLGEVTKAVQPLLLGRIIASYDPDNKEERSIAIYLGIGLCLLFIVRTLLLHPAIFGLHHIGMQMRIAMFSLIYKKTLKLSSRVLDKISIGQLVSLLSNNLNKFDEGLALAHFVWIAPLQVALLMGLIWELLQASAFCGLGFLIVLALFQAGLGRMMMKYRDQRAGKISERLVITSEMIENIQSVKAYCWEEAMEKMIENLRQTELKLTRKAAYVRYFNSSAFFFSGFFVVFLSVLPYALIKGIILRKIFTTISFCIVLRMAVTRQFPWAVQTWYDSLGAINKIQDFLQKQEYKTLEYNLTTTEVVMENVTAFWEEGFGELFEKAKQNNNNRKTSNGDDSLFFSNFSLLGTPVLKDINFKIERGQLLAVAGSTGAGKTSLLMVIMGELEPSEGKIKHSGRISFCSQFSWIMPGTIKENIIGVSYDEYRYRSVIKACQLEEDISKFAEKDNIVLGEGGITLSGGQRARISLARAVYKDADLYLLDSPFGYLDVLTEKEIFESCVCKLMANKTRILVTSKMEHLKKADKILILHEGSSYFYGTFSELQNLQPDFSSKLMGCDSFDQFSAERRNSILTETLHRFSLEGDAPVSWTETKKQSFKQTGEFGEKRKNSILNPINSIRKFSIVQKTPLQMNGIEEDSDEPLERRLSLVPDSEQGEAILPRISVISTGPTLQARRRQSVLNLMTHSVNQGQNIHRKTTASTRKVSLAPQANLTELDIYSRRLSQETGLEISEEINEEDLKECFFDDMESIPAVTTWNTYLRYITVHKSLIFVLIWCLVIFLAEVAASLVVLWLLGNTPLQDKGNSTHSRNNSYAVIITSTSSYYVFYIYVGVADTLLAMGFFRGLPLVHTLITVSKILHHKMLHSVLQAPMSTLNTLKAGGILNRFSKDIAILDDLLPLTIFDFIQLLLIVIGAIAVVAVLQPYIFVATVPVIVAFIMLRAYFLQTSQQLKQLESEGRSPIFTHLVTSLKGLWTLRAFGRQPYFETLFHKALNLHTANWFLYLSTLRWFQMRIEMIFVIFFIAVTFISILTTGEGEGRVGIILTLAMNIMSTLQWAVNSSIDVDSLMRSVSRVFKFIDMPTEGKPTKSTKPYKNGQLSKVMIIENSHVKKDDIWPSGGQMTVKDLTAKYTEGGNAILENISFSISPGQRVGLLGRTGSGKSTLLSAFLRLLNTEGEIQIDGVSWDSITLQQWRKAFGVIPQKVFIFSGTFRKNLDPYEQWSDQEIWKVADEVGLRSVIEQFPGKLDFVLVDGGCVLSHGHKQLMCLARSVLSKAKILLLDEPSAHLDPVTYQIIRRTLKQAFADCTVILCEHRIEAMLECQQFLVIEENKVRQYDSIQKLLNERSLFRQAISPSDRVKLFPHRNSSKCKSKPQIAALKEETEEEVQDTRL

A word on the pEC50: it is −log10 of the EC50, conventionally taken in molar units. A low value points to a large EC50. On to `CC(O)(CNC(=O)c1ncc(S(=O)(=O)c2ccc(OC(F)(F)F)cc2)cc1N)C(F)(F)F` (stereo not drawn) [Compound 2, 3-amino-N-(3,3,3-trifluoro-2-hydroxy-2-methylpropyl)-5-{[4-(trifluoromethoxy)phenyl]sulfonyl}pyridine-2-carboxamide], for which the entries for the “% Activation” value at CFTR G551D mutant, at CFTR ΔF508 mutant and at CFTR-R117H were 62.5%, 104.5% and 76.0%, respectively. Also, the pEC50 at CFTR G551D mutant is 6.13; on CFTR ΔF508 mutant, 8.37; at CFTR-R117H, 6.64.

Take `Nc1cc(S(=O)(=O)c2ccc(OC(F)(F)F)cc2)cnc1C(=O)NC[C@H](O)C(F)(F)F` [Compound 26, 3-amino-N-[(2S)-3,3,3-trifluoro-2-hydroxypropyl]-5-{[4-(trifluoromethoxy)phenyl]sulfonyl}pyridine-2-carboxamide]: the “% Activation” value on CFTR G551D mutant turned out to be 80.8%; at CFTR ΔF508 mutant it was 105.3%. The pEC50 on CFTR G551D mutant is 6.50; on CFTR ΔF508 mutant it was 8.66; at G551D CFTR, 5.91.

Take `Nc1cc(S(=O)(=O)c2ccc(OC(F)(F)F)cc2)cnc1C(=O)NCC(O)C(F)(F)F` (stereo not drawn) [Compound 6, 3-amino-N-(3,3,3-trifluoro-2-hydroxypropyl)-5-{[4-(trifluoromethoxy)phenyl]sulfonyl}pyridine-2-carboxamide]: the “% Activation” value on CFTR G551D mutant was found to be 82.5%; on CFTR ΔF508 mutant it was 114.0%; at CFTR-R117H, 95.7%. In addition, the pEC50 was 6.46 at CFTR G551D mutant, 8.47 on CFTR ΔF508 mutant, 6.35 on G551D CFTR and 7.19 at CFTR-R117H.

On to `CC(C)(O)CNC(=O)c1ncc(S(=O)(=O)c2ccc(OC(F)(F)F)cc2)cc1N` [Compound 1, 3-amino-N-(2-hydroxy-2-methylpropyl)-5-{[4-(trifluoromethoxy)phenyl]sulfonyl}pyridine-2-carboxamide], for which the “% Activation” value worked out at 47.1% on CFTR G551D mutant, 97.9% at CFTR ΔF508 mutant and 98.5% at CFTR-R117H. Also, the pEC50 on CFTR G551D mutant is 6.16; at CFTR ΔF508 mutant it was 7.50; on G551D CFTR it was 6.19; at CFTR-R117H, 6.22.

In the case of `Nc1cc(S(=O)(=O)c2ccccc2OC(F)(F)F)cnc1C(=O)NC[C@@H](O)C(F)(F)F` [Compound 81, 3-amino-N-[(2R)-3,3,3-trifluoro-2-hydroxypropyl]-5-{[2-(trifluoromethoxy)phenyl]sulfonyl}pyridine-2-carboxamide], the results for the “% Activation” value at CFTR G551D mutant, at CFTR ΔF508 mutant and at CFTR-R117H were 108.0%, 104.0% and 113.2%, respectively. In addition, the pEC50 is 6.62 on CFTR G551D mutant, 9.30 on CFTR ΔF508 mutant and 7.66 on CFTR-R117H.

Take `Nc1cc(S(=O)(=O)c2ccc(OC(F)(F)F)cc2)cnc1C(=O)NCCO` [Compound 14, 3-amino-N-(2-hydroxyethyl)-5-{[4-(trifluoromethoxy)phenyl]sulfonyl}pyridine-2-carboxamide]: the figures for the “% Activation” value on CFTR G551D mutant, on CFTR ΔF508 mutant and at CFTR-R117H were 71.6%, 108.1% and 89.7%, respectively. For the same compound, the pEC50 on CFTR G551D mutant was 5.88; on CFTR ΔF508 mutant it was 7.63; at G551D CFTR, 4.93; at CFTR-R117H, 6.03.

`Nc1cc(S(=O)(=O)c2ccc(OC(F)(F)F)cc2)cnc1C(=O)N1CC(O)C1` [Compound 32, (3-amino-5-{[4-(trifluoromethoxy)phenyl]sulfonyl}pyridin-2-yl)(3-hydroxyazetidin-1-yl)methanone]: the “% Activation” value turned out to be 65.8% on CFTR G551D mutant, 96.1% on CFTR ΔF508 mutant and 91.3% at CFTR-R117H. For the same compound, the pEC50 on CFTR G551D mutant was 5.71; at CFTR ΔF508 mutant, 7.84; on CFTR-R117H it was 6.34.

For `COC[C@H](O)CNC(=O)c1ncc(S(=O)(=O)c2ccc(C(F)(F)F)cc2)cc1N` [Compound 70, 3-amino-N-[(2R)-2-hydroxy-3-methoxypropyl]-5-{[4-(trifluoromethyl)phenyl]sulfonyl}pyridine-2-carboxamide], the “% Activation” value at CFTR G551D mutant was found to be 75.3%; at CFTR ΔF508 mutant, 111.6%; on CFTR-R117H, 98.8%. For the same compound, the pEC50 at CFTR G551D mutant is 6.06; at CFTR ΔF508 mutant it was 7.77; on G551D CFTR, 6.21; on CFTR-R117H, 6.27.

For `Nc1cc(S(=O)(=O)c2ccc(F)cc2)cnc1C(=O)NC[C@H](O)C(F)(F)F` [Compound 25, 3-amino-5-[(4-fluorophenyl)sulfonyl]-N-[(2S)-3,3,3-trifluoro-2-hydroxypropyl]pyridine-2-carboxamide], the “% Activation” value on CFTR G551D mutant was 67.2%; on CFTR ΔF508 mutant, 108.3%; on CFTR-R117H it was 91.3%. Besides, the pEC50 at CFTR G551D mutant was 6.01; on CFTR ΔF508 mutant, 8.09; at G551D CFTR, 5.92; at CFTR-R117H it was 6.50.

For `Nc1cc(S(=O)(=O)c2ccc(OC(F)(F)F)cc2)cnc1C(=O)NCC(O)COCC1CC1` (stereo not drawn) [Compound 31, 3-amino-N-[3-(cyclopropylmethoxy)-2-hydroxypropyl]-5-{[4-(trifluoromethoxy)phenyl]sulfonyl}pyridine-2-carboxamide], the “% Activation” value on CFTR G551D mutant is on record as 71.7%; at CFTR ΔF508 mutant, 106.2%; at CFTR-R117H, 100.0%. Further, the negative logarithm of the EC50 (pEC50) at CFTR G551D mutant is 6.37; on CFTR ΔF508 mutant, 7.73; on G551D CFTR, 6.08; at CFTR-R117H it was 6.06.

`C[C@H](O)CNC(=O)c1ncc(S(=O)(=O)c2ccc(C(F)(F)F)cc2)cc1N` [Compound 100, 3-amino-N-[(2S)-2-hydroxypropyl]-5-{[4-(trifluoromethyl)phenyl]sulfonyl}pyridine-2-carboxamide]: the “% Activation” value is on record as 59.1% on CFTR G551D mutant, 96.6% at CFTR ΔF508 mutant and 97.3% at CFTR-R117H. Further, the negative-log EC50 (pEC50) was 5.94 at CFTR G551D mutant, 7.89 at CFTR ΔF508 mutant, 5.93 on G551D CFTR and 6.30 at CFTR-R117H.

With `C[C@H](O)CNC(=O)c1ncc(S(=O)(=O)c2ccc(OC(F)(F)F)cc2)cc1N` [Compound 21, 3-amino-N-[(2S)-2-hydroxypropyl]-5-{[4-(trifluoromethoxy)phenyl]sulfonyl}pyridine-2-carboxamide], the “% Activation” value worked out at 85.1% at CFTR G551D mutant, 109.0% at CFTR ΔF508 mutant and 93.3% at CFTR-R117H. For the same compound, the negative-log EC50 (pEC50) was 5.92 on CFTR G551D mutant, 7.83 at CFTR ΔF508 mutant, 5.79 at G551D CFTR and 6.54 at CFTR-R117H.

Turning to `Nc1cc(S(=O)(=O)c2ccc(OC(F)(F)F)cc2)cnc1C(=O)NC[C@@H](O)C(F)(F)F` [Compound 37, 3-amino-N-[(2R)-3,3,3-trifluoro-2-hydroxypropyl]-5-{[4-(trifluoromethoxy)phenyl]sulfonyl}pyridine-2-carboxamide], at CFTR G551D mutant, the “% Activation” value was 83.7% and the pEC50 was 6.57. For the same compound, on CFTR ΔF508 mutant, the “% Activation” value was 106.4% and the pEC50 was 8.64.

Consider `Nc1cc(S(=O)(=O)c2ccc(F)cc2)cnc1C(=O)NC[C@@H](O)C(F)(F)F` [Compound 36, 3-amino-5-[(4-fluorophenyl)sulfonyl]-N-[(2R)-3,3,3-trifluoro-2-hydroxypropyl]pyridine-2-carboxamide], for which the “% Activation” value turned out to be 58.4% on CFTR G551D mutant, 111.0% on CFTR ΔF508 mutant and 100.8% on CFTR-R117H. Also, the pEC50 was 6.18 on CFTR G551D mutant, 8.07 at CFTR ΔF508 mutant, 6.13 at G551D CFTR and 6.83 at CFTR-R117H.

Take `Nc1cc(S(=O)(=O)c2ccc(OC(F)(F)F)cc2)cnc1C(=O)N1CC(F)(F)C1` [Compound 40, (3-amino-5-{[4-(trifluoromethoxy)phenyl]sulfonyl}pyridin-2-yl)(3,3-difluoroazetidin-1-yl)methanone]: the “% Activation” value came to 70.2% at CFTR G551D mutant, 105.5% at CFTR ΔF508 mutant and 86.71% on CFTR-R117H. Further, the values for the pEC50 at CFTR G551D mutant, on CFTR ΔF508 mutant and on CFTR-R117H were 6.18, 7.64 and 6.54, respectively.

For the origin of these results see patent US10047051B2, “Substituted pyridines and method of use” (AbbVie S.á{acute over (.)}r.l., priority 2015, dated 2018).
